PubChem BioAssay (NCI)
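Test compounds were applied to cells in 96-well plates for 48 hours at 5 doses. Abbreviation: GI50, concentration required for 50% inhibition of growth. TGI is the concentration that stops growth completely.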

How the values were obtained:
Test in all cases: DTP human tumour cell line panel, 48 h
786-0 renal = system: 786-0 renal
A498 renal = system: A498 renal
A549 NSCLC = system: A549 NSCLC
ACHN renal = system: ACHN renal
BT-549 breast = system: BT-549 breast
CAKI-1 renal = system: CAKI-1 renal
CCRF-CEM leukemia = system: CCRF-CEM leukemia
COLO 205 colon = system: COLO 205 colon
DLD-1 colon = system: DLD-1 colon
DMS 114 small cell lung = system: DMS 114 small cell lung
DU-145 prostate = system: DU-145 prostate
EKVX NSCLC = system: EKVX NSCLC
HCC-2998 colon = system: HCC-2998 colon
HCT-116 colon = system: HCT-116 colon
HCT-15 colon = system: HCT-15 colon
HL-60(TB) leukemia = system: HL-60(TB) leukemia
HOP-18 NSCLC = system: HOP-18 NSCLC
HOP-62 NSCLC = system: HOP-62 NSCLC
HOP-92 NSCLC = system: HOP-92 NSCLC
HS 578T breast = system: HS 578T breast
HT29 colon = system: HT29 colon
IGROV1 ovarian = system: IGROV1 ovarian
K-562 leukemia = system: K-562 leukemia
KM12 colon = system: KM12 colon
LOX IMVI melanoma = system: LOX IMVI melanoma
M14 melanoma = system: M14 melanoma
M19-MEL melanoma = system: M19-MEL melanoma
MALME-3M melanoma = system: MALME-3M melanoma
MCF7 breast = system: MCF7 breast
MDA-MB-231 breast = system: MDA-MB-231 breast
MDA-MB-435 = system: MDA-MB-435
MDA-N = system: MDA-N
MOLT-4 leukemia = system: MOLT-4 leukemia
NCI-H226 lung = system: NCI-H226 lung
NCI-H23 lung = system: NCI-H23 lung
NCI-H460 lung = system: NCI-H460 lung
NCI-H522 lung = system: NCI-H522 lung
NCI/ADR-RES ovarian = system: NCI/ADR-RES ovarian
OVCAR-3 ovarian = system: OVCAR-3 ovarian
OVCAR-4 ovarian = system: OVCAR-4 ovarian
OVCAR-5 ovarian = system: OVCAR-5 ovarian
OVCAR-8 ovarian = system: OVCAR-8 ovarian
PC-3 prostate = system: PC-3 prostate
RPMI-8226 leukemia = system: RPMI-8226 leukemia
RXF 393 renal = system: RXF 393 renal
SF-268 CNS = system: SF-268 CNS
SF-295 CNS = system: SF-295 CNS
SF-539 CNS = system: SF-539 CNS
SK-MEL-2 melanoma = system: SK-MEL-2 melanoma
SK-MEL-28 melanoma = system: SK-MEL-28 melanoma
SK-MEL-5 melanoma = system: SK-MEL-5 melanoma
SK-OV-3 ovarian = system: SK-OV-3 ovarian
SN12C renal = system: SN12C renal
SNB-19 CNS = system: SNB-19 CNS
SNB-75 CNS = system: SNB-75 CNS
SNB-78 CNS = system: SNB-78 CNS
SR leukemia = system: SR leukemia
SW-620 colon = system: SW-620 colon
T-47D breast = system: T-47D breast
TK-10 renal = system: TK-10 renal
U251 CNS = system: U251 CNS
UACC-257 melanoma = system: UACC-257 melanoma
UACC-62 melanoma = system: UACC-62 melanoma
UO-31 renal = system: UO-31 renal
XF 498 CNS = system: XF 498 CNS

[C-]#[O+].[C-]#[O+].[Ir].[O-]c1ccc2ccccc2c1N=Nc1ccccc1
GI50 (786-0 renal): 3.39 µM | TGI (786-0 renal): 12.2 µM | TGI (A498 renal): 33.3 µM | TGI (A549 NSCLC): 70.1 µM | TGI (ACHN renal): 13.8 µM | TGI (BT-549 breast): 40.1 µM | TGI (CAKI-1 renal): 22.7 µM | TGI (CCRF-CEM leukemia): 7.42 µM | TGI (COLO 205 colon): 3.7 µM | GI50 (DLD-1 colon): 3.3 µM | TGI (DLD-1 colon): 12.4 µM | GI50 (DMS 114 small cell lung): 2.68 µM | TGI (DMS 114 small cell lung): 8.68 µM | TGI (DU-145 prostate): 31.9 µM | GI50 (EKVX NSCLC): 19.4 µM | TGI (EKVX NSCLC): 49.1 µM | TGI (HCC-2998 colon): 29.4 µM | TGI (HCT-116 colon): 24.7 µM | TGI (HCT-15 colon): 19.8 µM | TGI (HL-60(TB) leukemia): 7.76 µM | GI50 (HOP-18 NSCLC): 0.313 µM | TGI (HOP-18 NSCLC): 10.3 µM | TGI (HOP-62 NSCLC): > 100 µM | TGI (HOP-92 NSCLC): 32.4 µM | TGI (HS 578T breast): > 100 µM | TGI (HT29 colon): 20.6 µM | TGI (IGROV1 ovarian): 37.1 µM | TGI (K-562 leukemia): 80.4 µM | GI50 (KM12 colon): 13 µM | TGI (KM12 colon): > 44.1 µM | TGI (LOX IMVI melanoma): 24.6 µM | TGI (M14 melanoma): 13.2 µM | GI50 (M19-MEL melanoma): 3.24 µM | TGI (M19-MEL melanoma): 21.2 µM | TGI (MALME-3M melanoma): 13 µM | TGI (MCF7 breast): 21 µM | TGI (MDA-MB-231 breast): 40.7 µM | TGI (MDA-MB-435): 54.4 µM | TGI (MDA-N): 18.8 µM | TGI (MOLT-4 leukemia): 50.2 µM | TGI (NCI-H226 lung): 31.9 µM | TGI (NCI-H23 lung): 31.7 µM | TGI (NCI-H460 lung): > 70.6 µM | TGI (NCI-H522 lung): 4.01 µM | TGI (NCI/ADR-RES ovarian): 51.8 µM | TGI (OVCAR-3 ovarian): 17 µM | TGI (OVCAR-4 ovarian): 24.7 µM | TGI (OVCAR-5 ovarian): 38.3 µM | GI50 (OVCAR-8 ovarian): 13.6 µM | TGI (OVCAR-8 ovarian): 38.7 µM | TGI (PC-3 prostate): 54 µM | TGI (RPMI-8226 leukemia): 45.2 µM | TGI (RXF 393 renal): 6.78 µM | GI50 (SF-268 CNS): 22.7 µM | TGI (SF-268 CNS): 61.5 µM | GI50 (SF-295 CNS): 45.9 µM | TGI (SF-295 CNS): > 72.1 µM | TGI (SF-539 CNS): 50.4 µM | TGI (SK-MEL-2 melanoma): 49.1 µM | TGI (SK-MEL-28 melanoma): 24.7 µM | TGI (SK-MEL-5 melanoma): 28.7 µM | TGI (SK-OV-3 ovarian): > 68 µM | TGI (SN12C renal): 23.9 µM | TGI (SNB-19 CNS): > 70.7 µM | TGI (SNB-75 CNS): 59.6 µM | GI50 (SNB-78 CNS): 24.3 µM | TGI (SNB-78 CNS): 53 µM | TGI (SR leukemia): > 56.4 µM | TGI (SW-620 colon): 5.37 µM | GI50 (T-47D breast): 11.9 µM | TGI (T-47D breast): 33.5 µM | TGI (TK-10 renal): 17.3 µM | TGI (U251 CNS): 34.9 µM | TGI (UACC-257 melanoma): 14.4 µM | TGI (UACC-62 melanoma): 29.2 µM | TGI (UO-31 renal): 24.4 µM | GI50 (XF 498 CNS): 2.14 µM | TGI (XF 498 CNS): 5.18 µM
